The values that follow are results of earlier work, collected in patent publication US20160177324A1, “NOVEL PROTEIN AND GENE RELATED TO FLAVONOID O-METHYLTRANSFERASE (FOMT) AND THEIR USES THEREFORE” (INSTITUTE OF BOTANY, THE CHINESE ACADEMY OF SCIENCES, priority 2013, published 2016).

For this data set, the system named is cyanidin 3-glucoside 3′-O-methyltransferase (CGMT). The settings on record: partially purified from Vitis vinifera cell suspension; Bailly et al. 1997; cited from earlier work.

Structures are written as SMILES.

As to `O=C(/C=C/c1ccc(O)cc1)OC[C@H]1O[C@@H](Oc2cc3c(O)cc(=O)cc-3oc2-c2ccc(O)c(O)c2)[C@H](O)[C@@H](O)[C@@H]1O` [cyanidin 3-p-coumaroyl glucoside], the “activity of CGMT with substrate” value is reported as “no activity”.
